Each structure is given as a SMILES string. In brackets after ≈: the same amount, converted by molar mass.

The results in this text go back to ChEMBL document CHEMBL1275562, “Incidence and characteristics of vancomycin nonsusceptible strains of methicillin-resistant Staphylococcus aureus at Hershey Medical Center” (2008).

Format in all cases: functional
For assay [1], the system named is Staphylococcus aureus. The experiment in a line: Antimicrobial activity against vancomycin-intermediate Staphylococcus aureus SA770 after 48 hrs by macro Etest method. Particulars: SA770, 48 h.
The test system of assay [2] is Staphylococcus aureus. The experiment in a line: Antimicrobial activity against vancomycin-susceptible Staphylococcus aureus SA2089 after 48 hrs by macro Etest method. Particulars: SA2089, 48 h.
Assay [3] concerns Staphylococcus aureus. The experiment in a line: Antimicrobial activity against heterogeneous vancomycin-intermediate Staphylococcus aureus SA618 after 48 hrs by macro Etest method. Particulars: SA618, 48 h.
Assay [4] concerns Staphylococcus aureus. The experiment in a line: Antimicrobial activity against vancomycin-intermediate Staphylococcus aureus SA1984 after 48 hrs by macro Etest method. Particulars: SA1984, 48 h.
Assay [5] deals with Staphylococcus aureus. The experiment in a line: Antimicrobial activity against heterogeneous vancomycin-intermediate Staphylococcus aureus SA873 after 48 hrs by macro Etest method. Particulars: SA873, 48 h.
Assay [6] has as its system Staphylococcus aureus. The experiment in a line: Antimicrobial activity against vancomycin-susceptible Staphylococcus aureus SA662 after 48 hrs by macro Etest method. Particulars: SA662, 48 h.
The test system of assay [7] is Staphylococcus aureus. The experiment in a line: Antimicrobial activity against vancomycin-intermediate Staphylococcus aureus SA1287 after 48 hrs by macro Etest method. Particulars: SA1287, 48 h.

With `CC(=O)N[C@@H]1[C@H](Oc2c3cc4cc2Oc2ccc(cc2Cl)[C@@H](O[C@@H]2O[C@@H](CO)[C@@H](O)[C@H](O)[C@@H]2NC(C)=O)[C@@H]2NC(=O)[C@H](NC(=O)[C@@H]4NC(=O)[C@H]4NC(=O)[C@@H](Cc5ccc(c(Cl)c5)O3)NC(=O)[C@H](N)c3ccc(O)c(c3)Oc3cc(O)cc4c3)c3ccc(O)c(c3)-c3c(O[C@H]4O[C@H](CO)[C@@H](O)[C@@H](O)[C@@H]4O)cc(O)cc3[C@@H](C(=O)O)NC2=O)O[C@@H](CO)[C@@H](O)[C@@H]1O`, the MIC came to 24 µg/mL (≈ 13.6 µM) against Staphylococcus aureus [1]; 12 µg/mL (≈ 6.79 µM) in the assay with Staphylococcus aureus [2]; 24 µg/mL (≈ 13.6 µM) against Staphylococcus aureus [3]; 8 µg/mL (≈ 4.53 µM) in the assay on Staphylococcus aureus [4]; 12 µg/mL (≈ 6.79 µM) in the assay on Staphylococcus aureus [5]; 12 µg/mL (≈ 6.79 µM) in the assay with Staphylococcus aureus [6]. Further, in the assay on Staphylococcus aureus [7], the MIC turned out to be 8 µg/mL (≈ 4.53 µM).

As for `CN[C@H](CC(C)C)C(=O)N[C@H]1C(=O)N[C@@H](CC(N)=O)C(=O)N[C@H]2C(=O)N[C@H]3C(=O)N[C@H](C(=O)N[C@H](C(=O)O)c4cc(O)cc(O)c4-c4cc3ccc4O)[C@H](O)c3ccc(c(Cl)c3)Oc3cc2cc(c3O[C@@H]2O[C@H](CO)[C@@H](O)[C@H](O)[C@H]2O[C@H]2C[C@](C)(N)[C@H](O)[C@H](C)O2)Oc2ccc(cc2Cl)[C@H]1O` [VANCOMYCIN], the MIC against Staphylococcus aureus [1] worked out at 6 µg/mL (≈ 4.14 µM); with Staphylococcus aureus [2] it was 3 µg/mL (≈ 2.07 µM); against Staphylococcus aureus [3] it was 3 µg/mL (≈ 2.07 µM); in the assay with Staphylococcus aureus [4] it was 6 µg/mL (≈ 4.14 µM); in the assay with Staphylococcus aureus [5], 3 µg/mL (≈ 2.07 µM).

What is called MIC is the least concentration at which growth counts as inhibited.
